Measured values reported in patent US11464770B2, “Anticancer pharmaceutical composition” (NATIONAL CANCER CENTER, priority 2016, dated 2022).
Read-outs that look alike come from different tables or passages of the source.

Assays:
[1] = system: ovarian cancer cell lines; test: Cell based assay, cell viability (CellTiter-Glo), ovarian cancer cell lines; settings: Homo sapiens; OVCAR-3 cells
Outline: (§1)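 Cells were trypsinized, seeded, and left 24 h before compound was added at 0 to 2 μM final. After a further 72 h of culture, viability was read by ATP-based luminescence.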

[2] = system: RT4: human urinary bladder transitional cell papilloma; test: Cell based assay, cytotoxicity in RT4 papilloma cells (selectivity); settings: Homo sapiens, RT-4; RT4 cells
[3] = system: breast cancer cell lines (e.g. MDA-MB-231, SK-BR-3, MDA-MB-468, HCC1954); test: Cell based assay, cell viability (CellTiter-Glo), breast cancer cell lines
Outline: as §1

[4] = Breast cancer cell line MDA-MB-231-L/DOX, 72 hours, CellTiter-Glo, read-out: IC50, MDA-MB-231-L/DOX
[5] = Homo sapiens, Breast cancer cell line BT-20, 72 hours, CellTiter-Glo, read-out: IC50, BT-20
[6] = Homo sapiens, Breast cancer cell line HCC1395, 72 hours, CellTiter-Glo, read-out: IC50, HCC1395
[7] = Homo sapiens, Breast cancer cell line HCC1954, 72 hours, CellTiter-Glo, read-out: IC50, HCC1954
[8] = Homo sapiens, Breast cancer cell line JIMT-1, 72 hours, CellTiter-Glo, read-out: IC50, JIMT-1
[9] = Homo sapiens, Breast cancer cell line MCF7, 72 hours, CellTiter-Glo, read-out: IC50, MCF7
[10] = Homo sapiens, Breast cancer cell line MDA-MB-231, 72 hours, CellTiter-Glo, read-out: IC50, MDA-MB-231
[11] = Homo sapiens, Breast cancer cell line MDA-MB-468, 72 hours, CellTiter-Glo, read-out: IC50, MDA-MB-468
[12] = Homo sapiens, Breast cancer cell line SK-BR-3, 72 hours, CellTiter-Glo, read-out: IC50, SK-BR-3

Structure (SMILES)	IC50 [1]	IC50 [2]	IC50 [3, 4]	IC50 [3, 5]	IC50 [3, 6]	IC50 [3, 7]	IC50 [3, 8]	IC50 [3, 9]	IC50 [3, 10]	IC50 [3, 11]	IC50 [3, 12]	IC50 ([3]; Homo sapiens, BT-20 cells, 72 hours treatment, CellTiter-Glo cell viability, read-out: IC50, Breast cancer cell line BT-20)	IC50 ([3]; Homo sapiens, HCC1395 cells, 72 hours treatment, CellTiter-Glo cell viability, read-out: IC50, Breast cancer cell line HCC1395)	IC50 ([3]; Homo sapiens, HCC1954 cells, 72 hours treatment, CellTiter-Glo cell viability, read-out: IC50, Breast cancer cell line HCC1954)	IC50 ([3]; Homo sapiens, JIMT-1 cells, 72 hours treatment, CellTiter-Glo cell viability, read-out: IC50, Breast cancer cell line JIMT-1)	IC50 ([3]; Homo sapiens, MCF7 cells, 72 hours treatment, CellTiter-Glo cell viability, read-out: IC50, Breast cancer cell line MCF7)	IC50 ([3]; Homo sapiens, MDA-MB-231 cells, 72 hours treatment, CellTiter-Glo cell viability, read-out: IC50, Breast cancer cell line MDA-MB-231)	IC50 ([3]; Homo sapiens, MDA-MB-468 cells, 72 hours treatment, CellTiter-Glo cell viability, read-out: IC50, Breast cancer cell line MDA-MB-468)	IC50 ([3]; Homo sapiens, SK-BR-3 cells, 72 hours treatment, CellTiter-Glo cell viability, read-out: IC50, Breast cancer cell line SK-BR-3)	IC50 ([3]; MDA-MB-231-L/DOX cells, 72 hours treatment, CellTiter-Glo cell viability, read-out: IC50, Breast cancer cell line MDA-MB-231-L/DOX)
CC(=O)c1c(S(C)(=O)=O)n(S(=O)(=O)c2ccc(C(C)(C)C)cc2)c2c(Br)ccc(Cl)c2c1=O [Compound 41, 3-acetyl-8-bromo-1-((4-(tert-butyl)phenyl)sulfonyl)-5-chloro-2-(methylsulfonyl)quinolin-4(1H)-one]	> 2000 nM	> 10000 nM	> 2000 nM	> 2000 nM	> 10000 nM	> 2000 nM	> 10000 nM	> 2000 nM	> 2000 nM	> 2000 nM	> 2000 nM									
CSc1c(C(C)=O)c(=O)c2c(Cl)ccc(Br)c2n1S(C)(=O)=O [Compound 35, 3-acetyl-8-bromo-5-chloro-1-(methylsulfonyl)-2-(methylthio)quinolin-4(1H)-one]	> 2000 nM	> 10000 nM	> 2000 nM	> 2000 nM	> 10000 nM	> 2000 nM	> 10000 nM	> 2000 nM	> 2000 nM	> 2000 nM	> 2000 nM									
CC(=O)c1c(SCc2ccc([N+](=O)[O-])cc2)[nH]c2c(Br)ccc(Cl)c2c1=O [Compound 32, 3-acetyl-8-bromo-5-chloro-2-((4-nitrobenzyl)thio)quinolin-4(1H)-one]	> 2000 nM	> 10000 nM	> 2000 nM	> 2000 nM	> 10000 nM	> 2000 nM	> 10000 nM	> 2000 nM	> 2000 nM	> 2000 nM	> 2000 nM									
CC(=O)c1c(SCc2ccccc2)n(C(=O)c2ccc(Br)cc2)c2c(Br)ccc(Cl)c2c1=O [Compound 23, 3-acetyl-2-(benzylthio)-8-bromo-1-(4-bromobenzoyl)-5-chloroquinolin-4(1H)-one]	> 2000 nM	> 10000 nM	> 2000 nM	> 2000 nM	> 10000 nM	> 2000 nM	> 10000 nM	> 2000 nM	> 2000 nM	> 2000 nM	> 2000 nM									
O=C(c1c([S+]([O-])Cc2ccc(SC(F)(F)F)cc2)[nH]c2c(Br)ccc(Cl)c2c1=O)C1CC1 (stereo not shown) [Compound 101, 8-bromo-5-chloro-3-(cyclopropanecarbonyl)-2-((4-((trifluoromethyl)thio)benzyl)sulfinyl)quinolin-4(1H)-one]	1990 nM	> 10000 nM										> 2000 nM	> 10000 nM	1220 nM	> 10000 nM	> 2000 nM	> 2000 nM	1670 nM	1670 nM	> 2000 nM
